Experiments:
bedstraw = experiment: Test B pre/postemergence bedstraw; type: in vivo, Galium aparine
Outline: (§1)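 Herbicidal effect was estimated by eye on a ten-point control scale after plants spent twelve to sixteen days in a greenhouse following soil or foliar treatment. Foliar sprays targeted plants at one to four leaves; all doses were formulated in a non-phytotoxic solvent with surfactant.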

blackgrass = experiment: Test B pre/postemergence blackgrass; type: in vivo, Alopecurus myosuroides
Outline: as §1

surinam grass = experiment: Test B pre/postemergence surinam grass; type: in vivo, Brachiaria decumbens
Outline: as §1

cocklebur = experiment: Test B pre/postemergence cocklebur; type: in vivo, Xanthium strumarium
Outline: as §1

corn = experiment: Test B pre/postemergence corn; type: in vivo, Zea mays
Outline: as §1

crabgrass = experiment: Test B pre/postemergence crabgrass; type: in vivo, Digitaria sanguinalis
Outline: as §1

giant foxtail = experiment: Test B pre/postemergence giant foxtail; type: in vivo, Setaria faberii
Outline: as §1

morningglory = experiment: Test B pre/postemergence morningglory; type: in vivo, Ipomoea hederacea
Outline: as §1

pigweed = experiment: Test B pre/postemergence pigweed; type: in vivo, Amaranthus retroflexus
Outline: as §1

rape = experiment: Test B pre/postemergence rape; type: in vivo, Brassica napus
Outline: as §1

soybean = experiment: Test B pre/postemergence soybean; type: in vivo, Glycine max
Outline: as §1

sugar beet = experiment: Test B pre/postemergence sugar beet; type: in vivo, Beta vulgaris
Outline: as §1

velvetleaf = experiment: Test B pre/postemergence velvetleaf; type: in vivo, Abutilon theophrasti
Outline: as §1

wheat = experiment: Test B pre/postemergence wheat; type: in vivo, Triticum aestivum
Outline: as §1

wild oat = experiment: Test B pre/postemergence wild oat; type: in vivo, Avena fatua
Outline: as §1

purple nutsedge = experiment: Test B pre/postemergence purple nutsedge; type: in vivo, Cyperus rotundus
Outline: as §1

[1] = Postemergence, Rate 125 g/ha, scale 0 to 10, 0 is no effect, 10 is complete control
[2] = Postemergence, Rate 250 g/ha, scale 0 to 10
[3] = Preemergence, Rate 62 g/ha, scale of 0 to 10 where 0 is no effect and 10 is complete control
[4] = Preemergence, Rate 125 g/ha, scale 0 to 10, 0 is no effect, 10 is complete control
[5] = Preemergence, Rate 250 g/ha, scale 0 to 10, 0 is no effect, 10 is complete control
[6] = Preemergence, Rate 500 g/ha, scale 0 to 10, 0 is no effect, 10 is complete control
[7] = Postemergence, Rate 62 g/ha, scale of 0 to 10, 0 is no effect, 10 is complete control
[8] = Postemergence, Rate 500 g/ha, scale 0 to 10, 0 is no effect, 10 is complete control
[9] = Preemergence, Rate 500 g/ha, scale of 0 to 10 where 0 is no effect and 10 is complete control

CC(C)N(C(=O)n1oc(=O)n(CCCF)c1=O)c1ccc(F)cc1F [Compound 500]
Bedstraw plant response rating (bedstraw; [1]): 9
Bedstraw plant response rating (bedstraw; [2]): 9
Plant response rating, Bedstraw (bedstraw; [3]): 8
Bedstraw plant response rating (bedstraw; [4]): 9
Bedstraw plant response rating (bedstraw; [5]): 9
Bedstraw plant response rating (bedstraw; [6]): 10
Blackgrass plant response rating (blackgrass; [7]): 3
Blackgrass plant response rating (blackgrass; [1]): 4
Blackgrass plant response rating (blackgrass; [2]): 6
Plant response rating, Blackgrass (blackgrass; [8]): 6
Plant response rating, Blackgrass (blackgrass; [3]): 9
Blackgrass plant response rating (blackgrass; [4]): 9
Blackgrass plant response rating (blackgrass; [5]): 10
Blackgrass plant response rating (blackgrass; [9]): 10
B. signalgrass plant response rating (surinam grass; [7]): 3
B. signalgrass plant response rating (surinam grass; [1]): 5
B. signalgrass plant response rating (surinam grass; Postemergence, Rate 250 g/ha, scale 0 to 10, 0 no effect, 10 complete control): 7
Plant response rating, B. signalgrass (surinam grass; [8]): 8
Plant response rating, B. signalgrass (surinam grass; [3]): 9
B. signalgrass plant response rating (surinam grass; [4]): 9
B. signalgrass plant response rating (surinam grass; [5]): 9
B. signalgrass plant response rating (surinam grass; [6]): 10
Cocklebur plant response rating (cocklebur; [7]): 3
Cocklebur plant response rating (cocklebur; [1]): 3
Cocklebur plant response rating (cocklebur; [2]): 3
Plant response rating, Cocklebur (cocklebur; [8]): 5
Plant response rating, Cocklebur (cocklebur; [3]): 0
Cocklebur plant response rating (cocklebur; [4]): 0
Cocklebur plant response rating (cocklebur; [5]): 2
Cocklebur plant response rating (cocklebur; [9]): 2
Corn plant response rating (corn; [7]): 2
Corn plant response rating (corn; [1]): 2
Corn plant response rating (corn; [2]): 2
Plant response rating, Corn (corn; [8]): 6
Plant response rating, Corn (corn; [3]): 0
Corn plant response rating (corn; [4]): 5
Corn plant response rating (corn; [9]): 8
Crabgrass plant response rating (crabgrass; [7]): 6
Crabgrass plant response rating (crabgrass; [1]): 9
Crabgrass plant response rating (crabgrass; [2]): 8
Plant response rating, Crabgrass (crabgrass; [8]): 9
Plant response rating, Crabgrass (crabgrass; [3]): 7
Crabgrass plant response rating (crabgrass; [4]): 9
Crabgrass plant response rating (crabgrass; [9]): 10
Giant foxtail plant response rating (giant foxtail; [7]): 7
Giant foxtail plant response rating (giant foxtail; [1]): 8
Plant response rating, Giant foxtail (giant foxtail; [8]): 9
Plant response rating, Giant foxtail (giant foxtail; [3]): 9
Giant foxtail plant response rating (giant foxtail; [4]): 10
Giant foxtail plant response rating (giant foxtail; [9]): 10
Morningglory plant response rating (morningglory; [7]): 3
Morningglory plant response rating (morningglory; [1]): 3
Plant response rating, Morningglory (morningglory; [8]): 3
Plant response rating, Morningglory (morningglory; [3]): 0
Morningglory plant response rating (morningglory; [4]): 5
Morningglory plant response rating (morningglory; [9]): 9
Redroot pigweed plant response rating (pigweed; [7]): 7
Redroot pigweed plant response rating (pigweed; [1]): 9
Plant response rating, Redroot pigweed (pigweed; [8]): 10
Plant response rating, Redroot pigweed (pigweed; [3]): 10
Redroot pigweed plant response rating (pigweed; [4]): 10
Redroot pigweed plant response rating (pigweed; [9]): 10
Rape plant response rating (rape; [7]): 3
Rape plant response rating (rape; [1]): 3
Plant response rating, Rape (rape; [8]): 8
Plant response rating, Rape (rape; [3]): 9
Rape plant response rating (rape; [4]): 10
Rape plant response rating (rape; [9]): 10
Soybean plant response rating (soybean; [7]): 3
Soybean plant response rating (soybean; [1]): 4
Plant response rating, Soybean (soybean; [8]): 4
Plant response rating, Soybean (soybean; [3]): 0
Soybean plant response rating (soybean; [4]): 3
Soybean plant response rating (soybean; [9]): 8
Sugarbeets plant response rating (sugar beet; [7]): 6
Sugarbeets plant response rating (sugar beet; [1]): 6
Plant response rating, Sugarbeets (sugar beet; [8]): 9
Plant response rating, Sugarbeets (sugar beet; [3]): 9
Sugarbeets plant response rating (sugar beet; [4]): 10
Sugarbeets plant response rating (sugar beet; [9]): 10
Velvetleaf plant response rating (velvetleaf; [7]): 4
Velvetleaf plant response rating (velvetleaf; [1]): 4
Plant response rating, Velvetleaf (velvetleaf; [8]): 5
Plant response rating, Velvetleaf (velvetleaf; [3]): 5
Velvetleaf plant response rating (velvetleaf; [4]): 8
Velvetleaf plant response rating (velvetleaf; [9]): 10
Wheat plant response rating (wheat; [7]): 0
Plant response rating, Wheat (wheat; [8]): 5
Plant response rating, Wheat (wheat; [3]): 2
Wheat plant response rating (wheat; [4]): 6
Wheat plant response rating (wheat; [9]): 8
Wild oats plant response rating (wild oat; [7]): 0
Wild oats plant response rating (wild oat; [1]): 0
Plant response rating, Wild oats (wild oat; [8]): 7
Plant response rating, Wild oats (wild oat; [3]): 7
Wild oats plant response rating (wild oat; [4]): 9
Wild oats plant response rating (wild oat; [9]): 10
Nutsedge plant response rating (purple nutsedge; [7]): 0
Plant response rating, Nutsedge (purple nutsedge; [8]): 2
Plant response rating, Nutsedge (purple nutsedge; [3]): 0
Nutsedge plant response rating (purple nutsedge; [4]): 8
Nutsedge plant response rating (purple nutsedge; [9]): 10

From patent US6737383B1, “Herbicidal oxadiazolidines” (priority 1999, dated 2004)
